Test results: patent publication US20250188123A1, “PROTEASE INHIBITORS” (Regents of the University of Minnesota, priority 2022, published 2025)
Where two headings read alike, the source gives them in different places.

Target: T1, human caspase-3 (Homo sapiens, UniProt P42574)
T1 construct: made in house; host or cells: E. coli Rosetta 2 pLysS DE3
T1 sequence (P42574 29-277): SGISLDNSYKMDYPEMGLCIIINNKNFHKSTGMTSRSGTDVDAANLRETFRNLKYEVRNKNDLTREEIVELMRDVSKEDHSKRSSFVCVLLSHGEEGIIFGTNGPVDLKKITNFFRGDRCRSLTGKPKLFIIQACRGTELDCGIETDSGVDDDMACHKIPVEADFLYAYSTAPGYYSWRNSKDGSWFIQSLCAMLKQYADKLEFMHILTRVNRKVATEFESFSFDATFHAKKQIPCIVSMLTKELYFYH
Test: Fluorescent enzyme assay, Casp3 (AFC substrate AcDEVD-AFC)
Type: biochemical
From the text: Human recombinant Casp1, 6, 7, and 9 were purchased from BioVision (Milpitas/CA, USA). AFC fluorogenic substrates and control peptides (AcYVAD-CHO, AcVDVAD-CHO, AcDEVD-CHO, AcVEID-CHO, and AcLEHD-CHO) were purchased from Bachem (Torrance/CA, USA). The pET23b vector encoding human caspase-3 was a gift of Dr. Michelle Arkin at University of California, San Francisco. Expression and purification of Casp3 was guided by previously described protocols (Denault J-B, Salvesen G S., Current Protocols in Protein Science, 2002, 30(1), 21.13. 1-21.13. 15). Briefly, the plasmid was transformed into E. coli Rosetta 2 pLyss DE3 cells that were cultured at 1 L scale in shake flasks. Five hours post induction with IPTG, cells were harvested through centrifugation (4000 g for 10 minutes at 4° C.), lysed by sonication, and centrifuged again for 30 minutes at 20000 g. Supernatant was resuspended in buffer (100 mM Tris pH 8.0, 500 mM NaCl). Purification was achieved by nickel-affinity chromatography followed by ion-exchange chromatography. Protein was diluted to 0.5 mg/mL and stored at −80° C. in 100 mM Tris, pH 8.0 supplemented with 10% glycerol. The typical yield for the expression, isolation, and purification was approximately 3 mg/L. The DNA encoding human caspase-2 (hCASP2, amino acids 170-452, free of the N-terminal caspase activation and recruitment domain) open reading frame (ORF) was amplified via polymerase chain reaction (PCR) from full-length hCASP2 cDNA (Origene, Rockville, MD; Cat #SC321316) using following primers: forward, 5′-[…]-3′; reverse, 5′-[…]-3′. The PCR fragment was then cloned into the pET23b vector (Millipore Sigma, Burlington, MA), and DNA sequence was verified by classic Sanger sequencing analyses. Site-directed mutageneses were carried out using a QuikChange II XL site-directed mutagenesis kit (Agilent Technologies, Santa Clara, CA; Cat #200522) according to the manufacturer's instruction. Expression of recombinant hCASP2 was induced using 150 μM isopropyl-β-D-thiogalactopyranoside (IPTG) (Promega, Madison, WI) in the BL21(DE3) E. coli strain (Millipore Sigma) at 16° C. for 14 hours while shaking at 250 rpm. Cells were then harvested via centrifugation at 6,000 g, 4° C. for 15 minutes, followed by lysis via sonication. Proteins were initially purified using HisPur Ni-NTA resin (Thermo Fisher Scientific, Waltham, MA) followed by metal chelating chromatography (5 mL HiTrap Chelating HP columns (GE Healthcare Life Sciences, Piscataway, NJ)). Further purification was carried out using anion exchange chromatography (5 mL HiTrap Q HP columns (GE Healthcare Life Sciences)) for hCASP2. Proteins were stored in 1× phosphate-buffered saline (pH 7.4) at 10 mg/mL (concentration determined using a BCA assay (Thermo Fisher Scientific)), −80° C. until further use.
KM values were determined experimentally to be the following: Casp1: 5.9 μM; Casp2: 37.1 μM; Casp3: 7.6 μM; Casp6: 14.5 μM; Casp7: 13.8 μM; Casp9: 149.1 μM. Enzymes were diluted in buffer: 100 mM MES (pH 6.5) for Casp2 and or 100 mM HEPES (pH 7.0) for all other caspases, plus 150 mM NaCl, 0.1% CHAPS, 1.5% sucrose, 10 mM DTT. Enzyme concentrations were 0.05 U/well for Casp1, 6, and 7; 0.5 U/well for Casp9, 20 nM/well for Casp2, and 2 nM/well for Casp3. Enzyme in buffer (19 μL) was added per well in a black 384-well Corning 4514 assay plate. Test compounds were serially diluted in dimethyl sulfoxide (DMSO) and plated in duplicate into a Corning 3656 transfer plate. Test compound was added to assay plates in 0.5 μL aliquots per well and mixed 10 times using a BiomekFX (Beckman Coulter). Compound and enzyme mixture was incubated at 37° C. for 5 minutes for aldehyde warheads and 45 minutes for cyano warheads. […]

For CC(=O)N[C@H](C(=O)NC(CC(=O)O)C(=O)N[C@H](C(=O)N1CCc2cc(C)ccc2C1C(=O)N[C@H](C=O)CC(=O)O)C(C)C)C(C)C (stereo in doubt) [Compound 30a, (R)-3-((S)-2-acetamido-3-methylbutanamido)-4-(((S)-1-((S)-1-(((S)-1-carboxy-3-oxopropan-2-yl)carbamoyl)-6-methyl-3,4-dihydroisoquinolin-2(1H)-yl)-3-methyl-1-oxobutan-2-yl)amino)-4-oxobutanoic acid, reference compound], the Ki (mean ± SEM of N independent experiments, each in duplicate or triplicate, read-out: pKi ± SEM Casp 3 (converted)) was greater than 100 µM.
Cc1ccc2c(c1)CCN(C(=O)[C@@H](NC(=O)[C@H](CCCC(=O)O)NC(=O)C1Cc3ccccc3N1)C(C)C)[C@@H]2C(=O)N[C@H](C#N)CC(=O)O (stereo partly drawn) [Compound 1, (8)-6-(((S)-1-((8)-1-(((S)-2-carboxy-1-cyanoethyl)carbamoyl)-6-methyl-3,4-dihydroisoquinolin-2(1H)-yl)-3-methyl-1-oxobutan-2-yl)amino)-5-((S)-indoline-2-carboxamido)-6-oxohexanoic acid] was tested, and the Ki was 0.933 µM.
With CC(=O)N[C@H](C(=O)N[C@@H](CC(=O)O)C(=O)N[C@H](C(=O)N1CCc2cc(C)ccc2[C@H]1C(=O)N[C@H](C=O)CC(=O)O)C(C)C)C(C)C [Compound 30b, (S)-3-((S)-2-acetamido-3-methylbutanamido)-4-(((S)-1-((S)-1-(((S)-1-carboxy-3-oxopropan-2-yl)carbamoyl)-6-methyl-3,4-dihydroisoquinolin-2(1H)-yl)-3-methyl-1-oxobutan-2-yl)amino)-4-oxobutanoic acid, reference compound] the “pKi ± SEM Casp 3” value (mean ± SEM of N independent experiments, each in duplicate or triplicate) was 6.04 ± 0.06.
